Source: patent US20100234372A1, “SUBSTITUTED 2-MERCAPTOQUINOLINE-3-CARBOXAMIDES AS KCNQ2/3 MODULATORS” (GRUNENTHAL GMBH, priority 2009, published 2010)

Tests used:
KCNQ2/3 channels = target: T1, KCNQ2/3 channels (Homo sapiens, UniProt O43525+O43526); experiment: Fluorescence assay using a voltage-sensitive dye (fluorimetry); assay type: cell-based; conditions: for EC50: CHO-K1 cells expressing KCNQ2/3 channels; for Emax at 1 µM: 50 μM retigabine = 100%, CHO-K1 cells expressing KCNQ2/3, read-out: Fluorimetry % efficacy at 1 μM (50 μM retigabine = 100%)
T1 construct: expressed in transfected cells; host or cells: CHO-K1 cells
Outline: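 CHO-K1 cells expressing human KCNQ2/3 were loaded with membrane-potential dye in ES buffer (pH 7.4) for 45 min, then incubated with compound for 30 min at room temperature. Fluorescence (525/560 nm) before (F1) and at peak after KCl (92 mM final) (F2) yielded agonist activity versus buffer controls; EC50 calculated.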

Male Sprague-Dawley rats = experiment: Low-intensity tail flick in rats; assay type: in vivo; conditions: po, rat
Source text: The antinociceptive activity of the test substance against an acute noxic thermal stimulant was examined in the tail-flick test in rats using the method described by D′Amour and Smith (J. Pharm. Exp. Ther. 72, 74 79 (1941)). Male Sprague-Dawley rats weighing between 200 and 250 g were used (breeder: Janvier, Le Genest St. Isle, France). The animals were placed in special test compartments and the base of the tail was exposed to a focused light beam from an analgesia meter (model 2011, Rhema Labortechnik, Hofheim, Germany). 10 animals were used per group. Before administering a substance according to the invention, the tail-flick latency (time from switching on the light beam to the flick of the tail) was measured twice at an interval of five minutes and the average was defined as the control latency time. The intensity of the light beam was chosen so that the control latency time was 7 to 9 seconds.
The measurement of the tail-flick latency was then repeated 10, 20, 30 and 60 minutes after peroral administration of the substance. The antinociceptive action of the test substance was determined as the increase in the tail-flick latency time using the following formula:
where T0=control latency time before administration of the substance, T1=latency time after administration of the substance, T2=maximum exposure time to the light beam (30 seconds), MPE=maximum possible effect.
Analysis of variance (repeated measures ANOVA) was used to test for statistically significant differences between the substance and vehicle group. The significance level was set at ≦0.05.

[1] = p.o., MPE, read-out: Low-intensity tail flick rat p.o. % effect (dose [mg/kg])

SMILES | EC50 (KCNQ2/3 channels) [nM] | Emax at 1 µM (KCNQ2/3 channels) [%] | inhibition in vivo at 21.5 mg/kg (Male Sprague-Dawley rats; p.o., dose 21.5 mg/kg, MPE, read-out: Low-intensity tail flick rat p.o. % effect (dose [mg/kg])) [%] | ED50 (Male Sprague-Dawley rats) [mg/kg] | inhibition in vivo at 10 mg/kg (Male Sprague-Dawley rats; [1]) [%] | inhibition in vivo at 4.64 mg/kg (Male Sprague-Dawley rats; p.o., dose 4.64 mg/kg, MPE, read-out: Low-intensity tail flick rat p.o. % effect (dose [mg/kg])) [%]
CCSc1nc2cc(C(F)(F)F)ccc2c(C)c1C(=O)NCc1cccnc1 [compound 42] | 1690 | 175 | 51 | – | – | –
CCSc1nc2cc(C(F)(F)F)ccc2c(C)c1C(=O)NCc1cccc(F)c1 [compound 76] | 92 | 182 | – | 6.3 | – | –
CCSc1nc2cc(C(F)(F)F)ccc2c(C)c1C(=O)NCc1ccc(F)cc1 [compound 77] | 105 | 137 | – | – | 37 | –
Cc1c(C(=O)NCc2cccs2)c(SC(C)(C)C)nc2cc(C(F)(F)F)ccc12 [compound 89] | 64 | 220 | – | 2.7 | – | –
Cc1c(C(=O)NCc2ccc(F)cc2)c(SC(C)(C)C)nc2cc(C(F)(F)F)ccc12 [compound 94] | 54 | 162 | – | – | – | 71
CCSc1nc2cc(F)c(F)cc2c(C)c1C(=O)NCc1ccc(F)cc1 [compound 109] | 187 | 144 | – | – | 7 | –
CCSc1nc2cc(C(F)(F)F)ccc2c(C)c1C(=O)NCc1ccccc1O [compound 112, 2-Ethylsulfanyl-N-[(2-hydroxyphenyl)-methyl]-4-methyl-7-(trifluoromethyl)-quinoline-3-carboxamide] | 130 | 211 | – | – | 17 | –
